Where two headings read alike, the source gives them in different places.
What was measured:
HSA [1] = target: T1, HSA (Homo sapiens, UniProt P02768); experiment: HSA binding affinity by ultrafiltration analysis
Method: (§1) The HSA binding affinity was measured using ultrafiltration analysis.

C6 glioma = experiment: MR imaging of brain cancer model; type: in vivo; conditions: 0.1 mmol/kg Gd-DO3A-butrol versus 0.05 mmol/kg Gd-PCTA-Ach; FIG. 8A
Method: After a brain cancer model was prepared using C6 glioma which is a brain cancer cell, 0.1mmol/kg of Gd-PCTA-Ach 0.1mmol/kg, Gd-PCTA-Ach 0.05mmol/kg, and Gd-DO3A-butrol were injected thereto, respectively, to obtain MR images (FIG. 8A) and CNR graphs (FIG. 8B) according to the MR images, and the results are shown in FIG. 8.

[2] = Relaxability (r1 and r2) under 3.0T and 9.4T magnetic fields in water and HSA; type: physicochemical
liver = experiment: 3.0T MR imaging of liver and gallbladder in normal mice versus commercial contrast agents; type: in vivo; conditions: 5min to 120min after injection, FIG. 9
[3] = value marked with footnote a (footnote not given); cited from earlier work
[4] = 3.0-T, Water; value marked with footnote a (footnote not given); cited from earlier work
HSA [5] = target: T1, HSA
Method: as §1

T1 sequence (P02768 25-609): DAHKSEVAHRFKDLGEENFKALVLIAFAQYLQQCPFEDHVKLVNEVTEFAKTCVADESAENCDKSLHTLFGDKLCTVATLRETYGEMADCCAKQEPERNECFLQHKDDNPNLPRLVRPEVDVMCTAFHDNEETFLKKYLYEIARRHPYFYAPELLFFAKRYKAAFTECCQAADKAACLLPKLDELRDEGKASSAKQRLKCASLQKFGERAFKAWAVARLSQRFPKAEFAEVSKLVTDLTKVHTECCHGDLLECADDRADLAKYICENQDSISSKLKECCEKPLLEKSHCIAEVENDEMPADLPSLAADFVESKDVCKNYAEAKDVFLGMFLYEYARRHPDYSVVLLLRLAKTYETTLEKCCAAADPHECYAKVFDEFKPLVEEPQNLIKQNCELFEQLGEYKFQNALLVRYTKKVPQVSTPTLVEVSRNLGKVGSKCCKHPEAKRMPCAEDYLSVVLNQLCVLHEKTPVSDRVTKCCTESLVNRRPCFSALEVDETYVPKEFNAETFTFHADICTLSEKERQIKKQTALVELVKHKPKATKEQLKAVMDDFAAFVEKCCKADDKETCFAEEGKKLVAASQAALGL
Source text for Hydrophilicity (log P): The Log P value is a value for evaluating the hydrophilicity. When the P value is smaller than 1, the Log P value becomes negative to indicate the hydrophilicity. When the P value is greater than 1, the Log P value becomes positive to indicate lipophilicity.

Compound	HSA bindin g affinity (%) (HSA [1])	brightness in MR image (C6 glioma)	log P (log Co/Cw) (Hydrophilicity (log P))	r1 ([2]; 3.0-T, HSA) [mM⁻¹ s⁻¹]	r2 ([2]; 3.0-T, HSA) [mM⁻¹ s⁻¹]	r1 ([2]; 3.0-T, Water) [mM⁻¹ s⁻¹]	r2 ([2]; 3.0-T, Water) [mM⁻¹ s⁻¹]	r1 ([2]; 9.4-T, Water) [mM⁻¹ s⁻¹]	r2 ([2]; 9.4-T, Water) [mM⁻¹ s⁻¹]	gallbladder contrast enhancement over time (liver)	log P (log Co/Cw) [3]	r1 [4] [mM⁻¹ s⁻¹]	HSA bindin g affinity (%) (HSA [5])
Gd-DO3A-butrol	3.4	comparable	-3.1	4.3 ± 0.1	6.5 ± 0.1	4.3 ± 0.2	5.5 ± 0.02	4.9 ± 0.9	6.4 ± 1.1	–	–	–	–
CCOc1ccc(C[C@@H](CN(CCN(CC(=O)[O-])CC(=O)[O-])CC(=O)[O-])N(CC(=O)[O-])CC(=O)[O-])cc1.[Gd+3].[Na+].[Na+] [Gd-EOB-DTPA]	8.9	–	-2.9	7.7 ± 0.1	11.1 ± 0.04	6.5 ± 0.04	7.3 ± 0.4	7.4 ± 1.4	10.7 ± 1.9	initially enhanced, and then was observed to decrease slowly	–	–	–
O=C(CCC(C(=O)[O-])N1CCN(C(CCC(=O)NCC(O)CO)C(=O)[O-])Cc2cccc(n2)CN(C(CCC(=O)NCC(O)CO)C(=O)[O-])CC1)NCC(O)CO.[Gd+3] (stereo not shown) [Gadopiclenol]	–	–	–	–	–	–	–	–	–	–	-4.2	11.3	–
O=C([O-])CN(CCN(CC(=O)[O-])CC(=O)[O-])CCN(CC(=O)[O-])C(COCc1ccccc1)C(=O)[O-].[Gd+3] (stereo not shown) [Gd-BOPTA]	–	–	–	5.8 ± 0.2	9.0 ± 0.3	5.1 ± 0.02	6.8 ± 0.4	6.1 ± 1.1	8.1 ± 1.4	initially enhanced, and then was observed to decrease slowly	–	–	15.0

Reference: patent EP4582432A1, “NOVEL COMPOUND AND MRI CONTRAST AGENT COMPRISING SAME” (Theranocure Co., Ltd., priority 2022, dated 2024)
